Literature values in paper PMC10208580 (Science Advances, 2023).

System: RyRs
Settings: higher concentrations of ryanodine; cited from earlier work
From the text: Subconducting states have also been observed in the presence of low concentrations of ryanodine. At higher concentrations, however, addition of ryanodine results in full block ([25]). […] A previous cryo-EM study has resolved density for ryanodine in the pore-forming region, inside the inner vestibule below Gln^4933 ([15]). As this site is >13 Å away from IpCa, ryanodine and IpCa can bind to RyRs simultaneously (fig. S12). Whereas IpCa causes ...

**Q.** For ryanodine, which “Effect on channel conductance at higher concentrations” value is on record?
**A.** full block
